Assay results from patent publication US9029393B2, “Adenosine receptor ligands and uses thereof” (Kaldi Pharma, SAS, priority 2009, dated 2015).

What was measured:
[1] = target: hA2A receptor (Homo sapiens (Human), UniProt P29274); assay: A2A FRET-based binding assay; conditions: HEK GFP-A2A stable cell line, dyed CGS15943-derived probe
Protocol: Assay protocol: Compounds were evaluated on an in-vitro binding assay developed based on the technology described in the patent WO 98/55873. This assay was developed from hA2A receptor that was fused at its amino terminal domain to Green Fluorescent Protein (GFP) and stably expressed in HEK cells. The probe used is a dyed ligand derived from the non-selective CGS15943. For the FRET-binding experiment, HEK GFP-A2A stable cell line was seeded onto poly-D-lysine precoated black-walled 96-well plates in normal growth media (0.7 10^5 cells per well). After 24 hours of culture at 37° C., the cell media was removed and cells were washed. The tested compounds were applied on cells by the FLIPR^TETRA® (Molecular Devices®) and incubated for 10 minutes prior to addition of the dyed probe. When a drug interacts with the receptor, the FRET signal measured by the variation of GFP fluorescence at 510 nm is disrupted. The time curves of ligand binding were recorded during 1000 seconds. (excitation Light Emitting Diode 470-495 nm, emission 510+/−10 nm). The percentage of inhibition allows the evaluation of the inhibitory activity of compounds in comparison to the antagonist A2A reference CGS15943. The dose-inhibition curves were fitted with variable slope, using GraphPad® Prism software, in order to determine […] and Ki values. The dose-inhibition experiments were all performed in duplicate, three times independently.

[2] = target: human A2A receptor (Homo sapiens, UniProt P29274); assay: A2A-antagonist Ca++ functional assay (CGS21680 at EC80); assay type: cell-based; conditions: HEK cells expressing GFP-hA2A and Gα15, inhibition of CGS21680 (EC80)-induced Ca2+ increase
Source text: Assay protocol: HEK cells stably expressing the human A2A receptor fused at its amino terminal domain to GFP, and cultured in Modified Eagle's Medium supplemented with 10% FCS, were transiently transfected by electroporation with plasmid DNA encoding the promiscuous G protein Gα15 in order to deviate the natural coupling of the receptor from AMPc production to calcium (Ca^2+) release pathway (Brabet et al., Neuropharmacology 37:1043-1051, 1998). Receptor activity was detected by changes in intracellular Ca^2+, measured using the fluorescent Ca^2+ sensitive dye, Fluo4AM (Molecular Probes®).
Cells were plated after transfection onto polyornithine coated, clear bottom, black-walled, 96-well plates and cultured for 24 hours. The day of the test, cells were washed with freshly prepared buffer B (HBSS 1×, Hepes 20 mM, MgSO4.7H2O 1 mM, Na2CO3 3.3 mM, CaCl2-2H2O 1.3 mM, 0.5% BSA, Probenecid 2.5 mM) and loaded at 37° C. in 5% CO2 for 1.5 hours with buffer B containing 1 μM Fluo4AM and 0.1 mg/mL Pluronic Acid. Afterwards cells were washed twice with buffer B and 50 μL of this buffer were added to each well. The tested compounds were incubated […] before addition of CGS21680 (used as reference agonist) at a concentration leading to 80% of its maximal activity (EC80). Afterwards, the intracellular Ca^2+ measurements were performed on a 60s kinetic by detection of the fluorescence intensity (excitation 485 nm, emission 525 nm) using the fluorescence microplate reader FlexStation® (Molecular Devices®). All data reflect three independent experiments. Dose-response curves were fitted by using the sigmoidal dose-response (variable slope) analyze in GraphPad Prism® program (San Diego) and IC50 of antagonist compound was calculated. Dose-response experiments were all performed in triplicate, three times independently.

[3] = tested on: haloperidol-induced catalepsy; assay: Haloperidol-induced catalepsy model in the mouse (bar test); assay type: in vivo

Chain of hA2A receptor (P29274 whole entry, the tested form may be a part): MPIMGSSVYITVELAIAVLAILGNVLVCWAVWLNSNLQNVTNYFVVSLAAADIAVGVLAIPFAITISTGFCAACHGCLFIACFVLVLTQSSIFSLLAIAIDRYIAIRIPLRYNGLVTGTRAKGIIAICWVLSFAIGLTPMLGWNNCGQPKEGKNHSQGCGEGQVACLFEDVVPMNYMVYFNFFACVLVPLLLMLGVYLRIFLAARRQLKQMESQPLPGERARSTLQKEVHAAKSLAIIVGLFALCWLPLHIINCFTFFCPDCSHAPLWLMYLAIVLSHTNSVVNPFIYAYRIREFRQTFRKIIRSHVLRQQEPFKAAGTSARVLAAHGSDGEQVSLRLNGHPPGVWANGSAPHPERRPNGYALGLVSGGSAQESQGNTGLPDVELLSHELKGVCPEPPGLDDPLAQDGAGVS

| SMILES | Ki [1] | IC50 [2] | melting point | anti-cataleptic effect ([3]; 1 mg/kg i.p. 120 minutes after haloperidol, FIG. 1) | anti-cataleptic effect ([3]; 30 mg/kg i.p. 120 minutes after haloperidol, FIG. 1) | anti-cataleptic effect ([3]; 1, 3, 30 and 100 mg/kg i.p. 120 minutes after haloperidol (1 mg/kg i.p.), FIG. 1) | anti-cataleptic effect ([3]; 10 and 30 mg/kg per os 120 minutes after haloperidol, FIG. 2) |
| --- | --- | --- | --- | --- | --- | --- | --- |
| O=C(c1ccc(C(=O)N2CCCc3ccccc32)cc1)c1cnc2ccccn12 [Example 71, [4-(3,4-Dihydro-2H-quinoline-1-carbonyl)-phenyl]-imidazo[1,2-a]pyridin-3-yl-methanone] | 171 ± 70 nM | 1830 ± 122 nM | 169 to 175 °C |  |  |  |  |
| O=C(c1ccc(C(=O)N2CCCCCC2)cc1)c1cnc2ccc(F)cn12 [Example 14, [4-(Azepane-1-carbonyl)-phenyl]-(6-fluoro-imidazo[1,2-a]pyridin-3-yl)-methanone] | 12 ± 6 nM | 195 ± 100 nM | 165 to 169 °C | no anticataleptic activity | the most important catalepsy reversion | significant anti-cataleptic effect in a dose-dependent manner | significant anti-cataleptic effect in a dose-dependent manner |
| Nc1cc(C(=O)N2CCCCCC2)ccc1C(=O)c1cnc2ccc(F)cn12 [Example 30, [2-Amino-4-(azepane-1-carbonyl)-phenyl]-(6-fluoro-imidazo[1,2-a]pyridin-3-yl)-methanone] | 103 ± 52 nM | 992 ± 11 nM | 141 to 152 °C |  |  |  |  |
| O=C(c1ccc2c(-c3cnc4ccc(F)cn34)noc2c1)N1CCCCCC1 [Example 113, Azepan-1-yl-[3-(6-fluoro-imidazo[1,2-a]pyridin-3-yl)-benzo[d]isoxazol-6-yl]-methanone] | 4 ± 1 nM | 46 ± 3 nM | 218 to 219 °C |  |  |  |  |
| O=C(c1ccc2c(c1)nnn2-c1cnc2ccc(F)cn12)N1CCCCCC1 [Example 132, 5-(Azepan-1-ylcarbonyl)-1-(6-fluoroimidazo[1,2-a]pyridin-3-yl)-1H-1,2,3-benzotriazole] | 72 ± 10 nM | 326 ± 47 nM | 160 to 166 °C |  |  |  |  |
